Values joined by “and” are separate entries in the source; they are usually repeats but may differ in a detail not shown here. Equal entries are not always repeated.
How the values were obtained:
CLP-induced sepsis rats [1] = test system: CLP-induced sepsis rats
Method: (§1) Sepsis was developed by cecal ligation puncture model (CLP) as described in several papers (Li G et al, Clin Exp Pharmacol Physiol. 2014; 41(7):459-68, Seija M et al, Shock. 2012; 38(4):403-10). Animals were anesthetized with ketamine (Ketolar 50 mg/ml) 90 mg/kg intraperitoneal (ip) and diazepam (Valium 10 mg/2 mL) 5 mg/kg ip. Under sterile conditions a 3-cm midline laparotomy was performed to allow exposure of the cecum, and a 4-0 silk ligature was placed 0.75 cm from the cecal tip. It was punctured once with a 14-gauge needle. A second ligature was placed 1.5 cm proximal to the first one and distal to the ileocecal valve to avoid intestinal obstruction. Three punctures were made in the cecum between the two ligatures with a 16-gauge needle. The cecum was gently squeezed until a 1-mm column of fecal material was exteriorized. The bowel was then returned to the abdomen and the incision was closed in layers. A sham operation (laparotomy and cecal exposure without any other manipulation) was performed as control. At the end of the operation, all rats were resuscitated with normal saline (50 ml/kg body weight) subcutaneously in a single dose and analgesic treatment with buprenorphine (buprex 0.3 mg/ml) 0.1 mg/kg every 12 hours immediately after surgery and until the day of killing.
Serum creatinine, blood urea nitrogen levels (BUN), proteins and other parameters were measured using the Dimension RxL autoanalyzer (Dade-Behring, Siemens, Eschborn, Germany). The glomerular filtration rate was calculated using the creatinine clearance rate.
The animals were randomly allocated into four groups (n=10 in each group): • i. sham-operated group, • ii. CLP group, • iii. sham-operated group+cilastatin, and • iv. CLP group+cilastatin.
(§2) In the treatment groups, the rats were treated with cilastatin 150 mg/kg ip immediately and at 24 h after induction of sepsis or the sham-operation. Cilastatin was substituted by vehicle (0.5 mL/100 g) in the non-treatment groups. […] All animals were then placed in the metabolic cages for 24-h urine collection.
(§3) Forty-eight (48) hours after the sepsis-induction/sham-operation, all rats were anesthetized with ketamine (10 mg/kg) and diazepam (4 mg/kg) and killed. Blood samples were collected by insertion of a cannula into the abdominal aorta, and serum was isolated by centrifugation in ACUETTE® Z Serum Sep Clot Activator tubes (Greiner bio-one), at 2000 rpm for 15 h at 4° C., and then stored at −80° C. until use. The kidneys were perfused with cold saline and quickly removed. Kidney samples were snap-frozen in liquid nitrogen and kept at −80° C. or fixed in 4% paraformaldehyde (24 h) and paraffin-embedded for the different studies.

FasL = settings: septic rats; Western blot
Method: as §1, with “At the end of the operation, all rats were resuscitated with normal saline (50 ml/kg body weight) subcutaneously in a single dose and analgesic treatment with buprenorphine (buprex 0.3 mg/ml) 0.1 mg/kg every 12 hours immediately after surgery and until the day of killing.” left out
(§4) Western blotting was performed as described previously (Humanes B et al, Kidney International. 2012; 82(6):652-663). […] All signals were visualized with an Alliance 4.7 (Uvitec, Cambridge, UK) and analyzed by densitometric scanning (ImageJ; http://rsbweb.nih.gov/ij/index.html). […]

cleaved caspase-8 = settings: septic rats; Western blot
Method: as §1, with “At the end of the operation, all rats were resuscitated with normal saline (50 ml/kg body weight) subcutaneously in a single dose and analgesic treatment with buprenorphine (buprex 0.3 mg/ml) 0.1 mg/kg every 12 hours immediately after surgery and until the day of killing.” left out
as §4

KIM-1 = settings: sepsis+cil vs control (SHAM) levels; immunohistochemistry and Western blot; 48 h
Method: as §1
(§5) Immunohistochemistry was carried out as described previously (Humanes B et al, Kidney International. 2012; 82(6):652-663). […] The surface area labeled by antibodies was evaluated by quantitative image analysis as previously described (Lazaro A. et al. Antiox Redox Signal. 2005; 7:1285-1293). In brief, the percentage of the stained area was calculated as the ratio of suitable binary thresholded image and the total field area. […]
as §4

cleaved caspase-3 = settings: septic rats; immunohistochemistry and Western blot of the renal cortex
Method: as §1, §5, §4

Cu/Zn SOD = settings: septic rats; immunohistochemistry and Western blotting
Method: as §1, §5, §4

CLP-induced sepsis rats [2] = test system: CLP-induced sepsis rats; remark: listed apart in the source
Method: as §1

VCAM-1 = settings: septic rats; immunohistochemistry
Method: as §1
(§6) Immunohistochemistry was carried out as described previously (Humanes B et al, Kidney International. 2012; 82(6):652-663). The primary antibodies used were polyclonal goat anti-rat TIM-1/KIM-1/HAVCR (1:20; R&D systems); anti-cleaved caspase-3 (Asp175) (1:50; Cell Signaling Technology, Inc., Beverly, Mass.) mouse monoclonal anti-4-HNE (1:75; Oxis International Inc., Foster City, Calif.); polyclonal rabbit anti-Cu/Zn SOD (1:1000; Assay Designs, Stressgen, Ann Arbor, Mich., USA); monoclonal mouse anti-CD68 (monocyte/macrophage, 1:125, Abd Serotec, Oxford, UK); polyclonal goat anti-VCAM-1 (1:100; Santa Cruz Biotechology, Inc., Beverly, Mass., USA); polyclonal rabbit anti-TGFβ1 antibody (1:100; Santa Cruz Biotechnology); monoclonal mouse anti-ICAM-1 (1:100; Santa Cruz). […] The surface area labeled by antibodies was evaluated by quantitative image analysis as previously described (Lazaro A. et al. Antiox Redox Signal. 2005; 7:1285-1293). In brief, the percentage of the stained area was calculated as the ratio of suitable binary thresholded image and the total field area. For each sample, the mean staining area was obtained by analysis of the entire sample.
as §2, §3

CD68 = settings: cilastatin-treated septic rats compared to the sepsis group
Method: as §1, §6, §2, §3

ICAM-1 = settings: septic rats; immunohistochemistry
Method: as §1, §6, §2, §3

4-HNE = settings: septic rats
Method: as §1, §6, §2, §3

TGFβ = settings: septic animals; immunohistochemistry
Method: as §1, §6, §2, §3

[3] = septic rats
Method: as §1, §2
as §3, with “Kidney samples were snap-frozen in liquid nitrogen and kept at −80° C. or fixed in 4% paraformaldehyde (24 h) and paraffin-embedded for the different studies.” left out

CLP-induced sepsis rats [4] = settings: day 2 after CLP surgery
Method: as §1, §2
as §3, with “Kidney samples were snap-frozen in liquid nitrogen and kept at −80° C. or fixed in 4% paraformaldehyde (24 h) and paraffin-embedded for the different studies.” left out

[5] = test system: kidney tubular cell apoptosis; settings: kidneys of septic rats
Method: as §1, §2
as §3, with “Kidney samples were snap-frozen in liquid nitrogen and kept at −80° C. or fixed in 4% paraformaldehyde (24 h) and paraffin-embedded for the different studies.” left out

[6] = sepsis+cil group, 48 hours after induction of sepsis, cilastatin 150 mg/kg ip immediately and at 24 h, mean±s.e.m.

## CC1(C)C[C@@H]1C(=O)N/C(=C\CCCCSC[C@H](N)C(=O)O)C(=O)O [cilastatin, (Z)-7-[(2R)-2-Amino-3-hydroxy-3-oxopropyl]sulfanyl-2-{[(1S)-2,2-dimethylcyclopropanecarbonyl]amino}hept-2-enoic acid]
CLP-induced sepsis rats [1]; CLP group with cilastatin vs CLP group, 48 h
  Protein excretion: significantly reduced
CLP-induced sepsis rats [1]; sepsis+cil group (fourth value, group not labelled), 48 hours, cilastatin 150 mg/kg ip, mean±s.e.m.
  Proteinuria: 1889±347
CLP-induced sepsis rats [1]; [6]
  Blood urea nitrogen: 75±7
  Serum creatinine: 0.38±0.02
CLP-induced sepsis rats [1]; sepsis+cil group, 48 hours, calculated using the creatinine clearance rate, cilastatin 150 mg/kg ip, mean±s.e.m.
  Glomerular filtration rate: 0.45±0.07
CLP-induced sepsis rats [1]; septic animals, cilastatin 150 mg/kg ip, 48 h
  Sepsis-induced dysfunctions: serum BUN and creatinine increase, glomerular filtration rate decrease: totally prevented
FasL
  Renal cortex FasL: attenuated
Cleaved caspase-8
  Renal cortex cleaved caspase-8: attenuated
KIM-1
  KIM-1 protein level: partially restored
Cleaved caspase-3
  Elevated caspase-3 levels: significantly lowered
Cu/Zn SOD
  Cu/Zn SOD expression in renal cortex: able to restore its expression
CLP-induced sepsis rats [2]; cilastatin vs CLP plus vehicle, 48 h after CLP
  Decrease in mortality: 33% and 30%
CLP-induced sepsis rats [2]; sepsis+cil group, monitored for 48 h after CLP, cilastatin 150 mg/kg immediately and at 24 h, 6 rats per group, sepsis vehicle group 83%
  Mortality (%): 50%
VCAM-1
  Sepsis-induced increase of VCAM-1 expression: significantly reduced
CD68
  CD68 positive cells in renal samples: fewer
ICAM-1
  Sepsis-induced increase of ICAM-1 expression: significantly reduced
4-HNE
  Sepsis-enhanced 4-HNE staining in the kidneys: completely prevented
TGFβ
  TGFβ1 levels in renal tissue: significantly decreased
[3]
  Antioxidant capacity in urine: improved
CLP-induced sepsis rats [4]
  Semi-quantitative renal injury score: reduced the renal injury score
[5]
  Number of TUNEL-positive cells: significantly decreased

— patent US11185522B2, “Cilastatin for use in the treatment of sepsis” (FUNDACIÓN PARA LA INVESTIGACIÓN BIOMÉDICA DEL HOSPITAL …, priority 2016, dated 2021)
